Source: PubChem BioAssay (NCI)
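All cell lines were grown in 96-well plates and treated with compound for 48 hours. The concentration for 50% growth inhibition is given as GI50. TGI: concentration producing complete growth inhibition.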

Tests used:
Experiment in all cases: DTP human tumour cell line panel, 48 h
[1] = system: SF-539 CNS
[2] = system: U251 CNS
[3] = system: OVCAR-4 ovarian
[4] = system: NCI-H226 lung
[5] = system: HOP-92 NSCLC
[6] = system: SW-620 colon
[7] = system: OVCAR-5 ovarian
[8] = system: OVCAR-8 ovarian
[9] = system: A498 renal
[10] = system: IGROV1 ovarian
[11] = system: SNB-19 CNS
[12] = system: HCT-15 colon
[13] = system: T-47D breast
[14] = system: RPMI-8226 leukemia
[15] = system: HS 578T breast
[16] = system: SK-MEL-2 melanoma
[17] = system: SN12C renal
[18] = system: M14 melanoma
[19] = system: SNB-75 CNS
[20] = system: SK-MEL-28 melanoma
[21] = system: PC-3 prostate
[22] = system: MDA-MB-468 breast
[23] = system: MDA-MB-231 breast
[24] = system: LOX IMVI melanoma
[25] = system: NCI/ADR-RES ovarian
[26] = system: A549 NSCLC
[27] = system: UO-31 renal
[28] = system: HT29 colon
[29] = system: UACC-257 melanoma

Which results are given for `COC(=O)c1ccc(-n2cc(CCCN(CCNc3ccnc4cc(Cl)ccc34)C(=O)CCC(=O)O[C@@H]3O[C@@H]4OC5(C)CC[C@H]6[C@H](C)CC[C@@H]([C@H]3C)[C@@]46OO5)nn2)cc1`?
GI50 [1]: 3.15 µM; TGI [1]: > 10.8 µM; GI50 [2]: 0.805 µM; TGI [2]: > 10.8 µM; GI50 [3]: 0.546 µM; TGI [3]: > 10.8 µM; GI50 [4]: 1.11 µM; TGI [4]: > 10.8 µM; GI50 [5]: 0.28 µM; TGI [5]: 2.82 µM; GI50 [6]: 0.375 µM; TGI [6]: > 10.8 µM; GI50 [7]: 0.796 µM; TGI [7]: > 10.8 µM; GI50 [8]: 0.55 µM; TGI [8]: 3.85 µM; GI50 [9]: > 10.8 µM; TGI [9]: > 10.8 µM; GI50 [10]: 1.88 µM; TGI [10]: > 10.8 µM; GI50 [11]: > 10.8 µM; TGI [11]: > 10.8 µM; GI50 [12]: 0.246 µM; TGI [12]: 2.13 µM; GI50 [13]: 0.254 µM; TGI [13]: > 10.8 µM; GI50 [14]: 0.189 µM; TGI [14]: > 10.8 µM; GI50 [15]: 0.751 µM; TGI [15]: > 10.8 µM; GI50 [16]: 2.4 µM; TGI [16]: > 10.8 µM; GI50 [17]: 1.68 µM; TGI [17]: > 10.8 µM; GI50 [18]: 2.65 µM; TGI [18]: > 10.8 µM; GI50 [19]: 1.01 µM; TGI [19]: > 10.8 µM; GI50 [20]: 1.33 µM; TGI [20]: > 10.8 µM; GI50 [21]: 0.0917 µM; TGI [21]: > 10.8 µM; GI50 [22]: 0.619 µM; TGI [22]: 10.3 µM; GI50 [23]: 6.84 µM; TGI [23]: > 10.8 µM; GI50 [24]: 0.429 µM; TGI [24]: 6 µM; GI50 [25]: 1.76 µM; TGI [25]: > 10.8 µM; GI50 [26]: 1.79 µM; TGI [26]: > 10.8 µM; GI50 [27]: 1.03 µM; TGI [27]: > 10.8 µM; GI50 [28]: 0.519 µM; TGI [28]: > 10.8 µM; GI50 [29]: 0.89 µM; TGI [29]: > 10.8 µM
